This is an account of results in PubChem BioAssay AID328 (DTP/NCI, 2004).

Where “and” joins values, the source holds several entries; their conditions need not be identical. Identical values can stand only once. Toxic doses and inconclusive results are not listed.

The test relates to BDF1 mice, P388 leukemia ip, median survival T/C. Kind of test: NCI In Vivo Anticancer Drug Screen. Data for tumor model P388 Leukemia (intraperitoneal) in B6D2F1 (BDF1) mice. The following applies: endpoint: median survival time, higher = longer survival. The essentials: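 T/C = treated-group survival ÷ vehicle-control survival; tumour transplanted into mice before dosing.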

Setting [1] is: dose: 25.0 mg/kg/injection, schedule: Q01DX009 (ip), vehicle: saline.
[2] abbreviates: dose: 50.0 mg/kg/injection, schedule: Q01DX009 (ip), vehicle: saline.
Setting [3] is: dose: 100.0 mg/kg/injection, schedule: Q01DX009 (ip), vehicle: saline.
[4] abbreviates: dose: 100.0 mg/kg/injection, schedule: Q04DX003 (ip), vehicle: saline with Tween-80.
Where [5] appears, read: dose: 25.0 mg/kg/injection, schedule: Q04DX003 (ip), vehicle: saline.
[6] abbreviates: dose: 100.0 mg/kg/injection, schedule: Q04DX003 (ip), vehicle: saline.
[7] abbreviates: dose: 200.0 mg/kg/injection, schedule: Q04DX003 (ip), vehicle: saline.

Consider `CCC(C)C(=O)O[C@H]1C(=O)O[C@@H]2C[C@H]3C(C)=CC(=O)[C@@H](O)[C@]3(C)[C@H]3[C@@H](O)[C@H](O)[C@@]4(C)OC[C@]32[C@@H]14` (some centres not stated), for which the T/C runs as follows: (dose: 0.06 mg/kg/injection, schedule: Q01DX009 (ip), vehicle: saline + alcohol) 115 % of control; (dose: 0.75 mg/kg/injection, schedule: Q01DX009 (ip), vehicle: saline + alcohol) 159 % of control; (dose: 1.0 mg/kg/injection, schedule: Q01DX009 (ip), vehicle: saline + alcohol) 198 % of control; (dose: 1.5 mg/kg/injection, schedule: Q01DX009 (ip), vehicle: saline + alcohol) 154 % of control; (dose: 2.0 mg/kg/injection, schedule: Q01DX009 (ip), vehicle: saline + alcohol) 155 % of control; (dose: 3.0 mg/kg/injection, schedule: Q01DX009 (ip), vehicle: saline + alcohol) 104 % of control. Further, the T/C (dose: 4.0 mg/kg/injection, schedule: Q01DX009 (ip), vehicle: saline + alcohol) was 180 % of control.
On to `NC(=O)c1nn(C2OC(CO)C(O)C2O)c2ncnc(N)c12` (configuration not stated), for which the T/C (dose: 12.5 mg/kg/injection, schedule: Q01DX009 (ip), vehicle: Klucel (hydroxypropylcellulose) (HPC)) was 118 % of control.
With `CCN(CC)C(C)CN1c2ccccc2Sc2ccccc21` (configuration not stated), the T/C was 100 % of control under setting [1], 112 % of control under setting [2] and 116 % of control under setting [3].
Take `CC(=O)c1ccccc1OCC(O)CN1CCN(c2ccccc2)CC1` (configuration not stated): the T/C runs as follows: (dose: 25.0 mg/kg/injection, schedule: Q01DX009 (ip), vehicle: saline with Tween-80) 100 % of control; (dose: 25.0 mg/kg/injection, schedule: Q04DX003 (ip), vehicle: saline with Tween-80) 113 % of control; (dose: 50.0 mg/kg/injection, schedule: Q01DX009 (ip), vehicle: saline with Tween-80) 100 % of control; (dose: 50.0 mg/kg/injection, schedule: Q04DX003 (ip), vehicle: saline with Tween-80) 104 % of control; (dose: 100.0 mg/kg/injection, schedule: Q01DX009 (ip), vehicle: saline with Tween-80) 96 % of control; under setting [4], 109 % of control.
In the case of `NC1CONC1=O` (configuration not stated), the T/C reads like this: under setting [1], 90 % of control; under setting [5], 104 % of control; under setting [2], 95 % of control; (dose: 50.0 mg/kg/injection, schedule: Q04DX003 (ip), vehicle: saline) 100 % of control; under setting [3], 90 % of control; under setting [6], 104 % of control. In addition, the T/C under setting [7] is 100 % of control; the T/C (dose: 400.0 mg/kg/injection, schedule: Q01DX009 (ip), vehicle: saline) is 100 % of control; the T/C (dose: 400.0 mg/kg/injection, schedule: Q04DX003 (ip), vehicle: saline) was 100 % of control.
For `CO[C@H]1C[C@](C)(O)Cc2cc3c(c(O)c21)C(=O)c1c(O)cc2c(c1C3=O)O[C@@H]1O[C@@]2(C)[C@H](O)[C@@H](N(C)C)[C@@H]1O`, the T/C by setting is: (dose: 18.0 mg/kg/injection, schedule: Q04DX003 (ip), vehicle: lactate) 228 % of control; (dose: 30.0 mg/kg/injection, schedule: Q04DX003 (ip), vehicle: lactate) 271 % of control; (dose: 50.0 mg/kg/injection, schedule: Q04DX003 (ip), vehicle: lactate) 107 % of control.
On to `COC1c2cnc(C)n2C=CN1C(C)=O` (configuration not stated), for which the T/C runs as follows: under setting [6], 99 % of control; under setting [7], 104 % of control; (dose: 300.0 mg/kg/injection, schedule: Q04DX003 (ip), vehicle: saline) 94 % of control.
For `CCN1CC2(COC)C(O)CC(OC)C34C5CC6(O)C(OC)C=C(C5C6OC(=O)c5ccc(OC)c(OC)c5)C(C(OC)C23)C14` (configuration not stated), the T/C reads like this: (dose: 0.19 mg/kg/injection, schedule: Q01DX009 (ip), vehicle: saline with Tween-80) 120 % of control; (dose: 0.38 mg/kg/injection, schedule: Q01DX009 (ip), vehicle: saline with Tween-80) 94 % of control; (dose: 0.75 mg/kg/injection, schedule: Q01DX009 (ip), vehicle: saline with Tween-80) 90 % of control.
`CCOC(=O)C(C)NC(=O)C(C)NC(=O)OCc1ccccc1` (configuration not stated): the T/C (dose: 100.0 mg/kg/injection, schedule: Q01DX009 (ip), vehicle: gum acacia) is 120 % of control; the T/C (dose: 100.0 mg/kg/injection, schedule: Q04DX003 (ip), vehicle: gum acacia) is 95 % of control; the T/C (dose: 200.0 mg/kg/injection, schedule: Q01DX009 (ip), vehicle: gum acacia) was 100 % of control; the T/C (dose: 200.0 mg/kg/injection, schedule: Q04DX003 (ip), vehicle: gum acacia) was 112 % of control; the T/C (dose: 400.0 mg/kg/injection, schedule: Q01DX009 (ip), vehicle: gum acacia) is 95 % of control; the T/C (dose: 400.0 mg/kg/injection, schedule: Q04DX003 (ip), vehicle: gum acacia) was 87 % of control.
Regarding `O=C(C=C(C(F)(F)F)C(F)(F)F)c1ccc([N+](=O)[O-])cc1`, the T/C runs as follows: (dose: 1.56 mg/kg/injection, schedule: Q01DX009 (ip), vehicle: other) 100 % of control; (dose: 3.13 mg/kg/injection, schedule: Q01DX009 (ip), vehicle: other) 109 % of control; (dose: 6.25 mg/kg/injection, schedule: Q01DX009 (ip), vehicle: other) 104 % of control.
Consider `COc1ccc(Cl)cc1NC(=O)Nc1c(C)n(C)n(-c2ccccc2)c1=O`, for which the T/C was 100 % of control (dose: 100.0 mg/kg/injection, schedule: Q01DX001 (ip), vehicle: Klucel (hydroxypropylcellulose) (HPC)); 100 % of control (dose: 200.0 mg/kg/injection, schedule: Q01DX001 (ip), vehicle: Klucel (hydroxypropylcellulose) (HPC)); 95 % of control (dose: 400.0 mg/kg/injection, schedule: Q01DX001 (ip), vehicle: Klucel (hydroxypropylcellulose) (HPC)).
In the case of `Nc1nc(N)c2cc(CNc3ccc(C(=O)NC(CC(=O)O)CC(=O)O)cc3)ccc2n1`, the T/C (dose: 132.0 mg/kg/injection, schedule: Q01DX009 (ip), vehicle: saline with Tween-80) is 90 % of control.
`CC[n+]1cccc(NC(=O)c2ccc(NC(=O)c3ccc(C(=O)Nc4ccc(C(=O)Nc5ccc[n+](CC)c5)cc4)cc3)cc2)c1`: the T/C is 118 % of control (dose: 0.44 mg/kg/injection, schedule: Q04DX003 (ip), vehicle: saline); 150 % of control (dose: 0.88 mg/kg/injection, schedule: Q01DX009 (ip), vehicle: saline); 163 % of control (dose: 1.32 mg/kg/injection, schedule: Q01DX009 (ip), vehicle: saline); 190 % of control (dose: 2.0 mg/kg/injection, schedule: Q01DX009 (ip), vehicle: saline); 204 % of control (dose: 2.77 mg/kg/injection, schedule: Q01DX009 (ip), vehicle: saline); 177 % of control (dose: 3.0 mg/kg/injection, schedule: Q01DX009 (ip), vehicle: saline). Further, the T/C reads like this: (dose: 4.17 mg/kg/injection, schedule: Q01DX009 (ip), vehicle: saline) 191 % of control; (dose: 6.25 mg/kg/injection, schedule: Q01DX009 (ip), vehicle: saline) 183 % of control and 220 % of control; (dose: 9.38 mg/kg/injection, schedule: Q01DX009 (ip), vehicle: saline) 237 % of control; (dose: 11.0 mg/kg/injection, schedule: Q04DX003 (ip), vehicle: saline) 168 % of control; (dose: 12.5 mg/kg/injection, schedule: Q01DX009 (ip), vehicle: saline) 295 % of control; (dose: 16.5 mg/kg/injection, schedule: Q04DX003 (ip), vehicle: saline) 200 % of control. The T/C is 90 % of control under setting [1]; 200 % of control under setting [5]; 181 % of control (dose: 37.5 mg/kg/injection, schedule: Q04DX003 (ip), vehicle: saline).
For the compound `CCCCCCCCCCCCC(C(=O)O)C1C=CCC1` (configuration not stated), the T/C is 100 % of control (dose: 100.0 mg/kg/injection, schedule: Q01DX001 (ip), vehicle: other); 100 % of control (dose: 200.0 mg/kg/injection, schedule: Q01DX001 (ip), vehicle: other); 100 % of control (dose: 400.0 mg/kg/injection, schedule: Q01DX001 (ip), vehicle: other).
As for `NC(N)=N/N=C/C=N/N=C(N)N`, the T/C under setting [6] is 100 % of control.
For the compound `Nc1ncnc2c1c(C(=O)O)cn2C1OC(CO)C(O)C1O` (configuration not stated), the T/C reads like this: (dose: 66.0 mg/kg/injection, schedule: Q04DX003 (ip), vehicle: saline with Tween-80) 160 % of control; under setting [4], 150 % of control and 170 % of control.
In the case of `CN(N=O)C(=O)NC(C=O)C(O)C(O)C(O)CO` (configuration not stated), the T/C (dose: 25.0 mg/kg/injection, schedule: Q01DX010 (ip), vehicle: saline) was 113 % of control.
In the case of `COC1=C(N)C(=O)c2ncccc2C1=O`, the T/C was 113 % of control (dose: 4.0 mg/kg/injection, schedule: Q01DX010 (ip), vehicle: acetone) and 109 % of control (dose: 8.0 mg/kg/injection, schedule: Q01DX010 (ip), vehicle: acetone).
